In patent US9556159B2, “Renin inhibitor” (MITSUBISHI TANABE PHARMA CORPORATION, priority 2012, dated 2017):

molecular target: T1, Recombinant human renin (Homo sapiens, UniProt P00797); experiment: Inhibitory activity against human renin (fluorogenic peptide substrate); type: biochemical; details: 37° C. for 1 hour, read-out: IC50
T1 sequence (P00797 67-406): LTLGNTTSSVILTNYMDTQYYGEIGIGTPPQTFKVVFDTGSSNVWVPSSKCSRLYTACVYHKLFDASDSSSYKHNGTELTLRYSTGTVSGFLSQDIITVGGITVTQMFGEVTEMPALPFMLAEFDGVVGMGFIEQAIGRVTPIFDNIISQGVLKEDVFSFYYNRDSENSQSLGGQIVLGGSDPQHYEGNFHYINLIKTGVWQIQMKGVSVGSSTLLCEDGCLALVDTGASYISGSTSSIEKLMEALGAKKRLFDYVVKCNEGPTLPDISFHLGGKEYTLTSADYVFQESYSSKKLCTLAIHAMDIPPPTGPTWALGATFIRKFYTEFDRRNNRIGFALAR
Protocol: Inhibitory Activity Against Human Renin
A substrate of synthetic peptide (Nma-KHPFH LVIHK(Dnp)-NH2) and test compound were mixed, and fluorescence intensity was assayed using a fluorophotometer before starting an enzymatic reaction (exciting wavelength: 340 nm, measuring wavelength: 460 nm). Recombinant human renin was added and the mixture was incubated at 37° C. for 1 hour, and the fluorescence intensity was measured after the reaction using a fluorophotometer (exciting wavelength: 340 nm, measuring wavelength: 460 nm).

Compound	IC50 [nM]
COC(=O)NCCCn1cc([C@@H](C)N(C(=O)[C@H]2CNCCO2)C2CC2)c2nccnc21 [Example 84]	1.7
COC(=O)NCCCc1cc(OC)cc([C@@H](C)N(C(=O)[C@H]2CNCCO2)C2CC2)c1 [Example 85]	1
COCCCCn1cc([C@@H](C)N(C(=O)[C@H]2CNCCO2)C2CC2)c2nccc(CCOC)c21 [Example 86]	1.1
COC(=O)NCCCc1cc(OC)cc([C@@H](C)N(C(=O)[C@H]2CNCCO2)C2CC2)n1 [Example 87]	4.8
CCc1ccc2c([C@@H](C)N(C(=O)[C@H]3CNCCO3)C3CC3)nn(CCCNC(=O)OC)c2n1 [Example 89]	1
COC(=O)NCCCn1nc([C@@H](C)N(C(=O)[C@H]2CNCCO2)C2CC2)c2ccc(C(C)C)nc21 [Example 90]	0.8
COC(=O)NCCCc1cc(F)cc([C@@H](C)N(C(=O)[C@H]2CNCCO2)C2CC2)c1 [Example 92]	1.9
COCCCCn1cc([C@@H](C)N(C(=O)[C@H]2CNCCO2)C2CC2)c2ncc(C)nc21 [Example 93]	1.6
COCc1ccc([C@@H](C)N(C(=O)[C@H]2CNCCO2)C2CC2)cc1OCCNC(=O)OC [Example 95]	7.2
COCc1ccc([C@@H](C)N(C(=O)[C@H]2CNCCO2)C2CC2)cc1CCCNC(=O)OC [Example 96]	0.8
COC(=O)NCCCc1cc([C@@H](C)N(C(=O)[C@H]2CNCCO2)C2CC2)cc(C)n1 [Example 97]	8.2
COC(=O)NCCCc1cc([C@@H](C)N(C(=O)[C@H]2CNCCO2)C2CC2)cc(Cl)n1 [Example 98]	2.8
COC(=O)NCCCc1cc([C@@H](C)N(C(=O)[C@H]2CNCCO2)C2CC2)cc(C(C)C)n1 [Example 99]	1.8
COC(=O)NCCCn1nc([C@@H](C)N(C(=O)[C@H]2CNCCO2)C2CC2)c2ccc(CN(C)C)nc21 [Example 100]	9
CCOc1ccnc2c([C@@H](C)N(C(=O)[C@H]3CNCCO3)C3CC3)cn(CCCCOC)c12 [Example 101]	2.5
COC(=O)NCCCn1cc([C@@H](C)N(C(=O)[C@H]2CNCCO2)C2CC2)c2ncc(C)nc21 [Example 102]	0.4
COCCCCn1cc([C@@H](C)N(C(=O)[C@H]2CNCCO2)C2CC2)c2cnc(C)nc21 [Example 103]	2.1
COC(=O)NCCOc1cc([C@@H](C)N(C(=O)[C@H]2CNCCO2)C2CC2)nc2c1CCCC2 [Example 104]	8.2
COCc1ccc2c([C@@H](C)N(C(=O)[C@H]3CNCCO3)C3CC3)nn(CCCNC(=O)OC)c2n1 [Example 105]	1.2
CCOc1ccc([C@@H](C)N(C(=O)[C@H]2CNCCO2)C2CC2)cc1CCCNC(=O)OC [Example 106]	0.7
COC(=O)NCCCc1cc([C@@H](C)N(C(=O)[C@H]2CNCCO2)C2CC2)ccc1OC(C)C [Example 107]	0.7
COC(=O)NCCc1cn(C)c2ccc([C@@H](C)N(C(=O)[C@H]3CNCCO3)C3CC3)cc12 [Example 108]	1.1
CCc1cc([C@@H](C)N(C(=O)[C@H]2CNCCO2)C2CC2)cc(OCCNC(=O)OC)n1 [Example 109]	3.4
COCCCCc1cc([C@@H](C)N(C(=O)[C@H]2CNCCO2)C2CC2)cc(C(C)C)n1 [Example 110]	0.9
COC(=O)NCCCn1nc([C@@H](C)N(C(=O)[C@H]2CNCCO2)C2CC2)c2ccc(CN(C)C)cc21 [Example 111]	3.5
CCc1cc([C@@H](C)N(C(=O)[C@H]2CNCCO2)C2CC2)cc(CCCCOC)n1 [Example 112]	2

same assay, conditions: 50% inhibitory concentration (IC50) against human renin, 37° C. for 1 hour

Compound	IC50 [nM]
COCCCc1cn(C)c2c(C)nc([C@@H](C)N(C(=O)[C@H]3CNCCO3)C3CC3)cc12 [Example 113]	1.4
COC(=O)NCCCn1cc([C@@H](C)N(C(=O)[C@H]2CNCCO2)C2CC2)c2ncc(Br)cc21 [Example 114]	1.1
COCCCCn1cc([C@@H](C)N(C(=O)[C@H]2CNCCO2)C2CC2)c2nccc(COC)c21 [Example 115]	1.8
COC(=O)NCCCc1cc([C@@H](C)N(C(=O)[C@H]2CNCCO2)C2CC2)nc2ccccc12 [Example 119]	0.5
CCc1cc(CCCNC(=O)OC)cc([C@@H](C)N(C(=O)[C@H]2CNCCO2)C2CC2)n1 [Example 120]	1.7
COC(=O)NCCCc1cc([C@@H](C)N(C(=O)[C@H]2CNCCO2)C2CC2)ncc1OC [Example 121]	5.4
COC(=O)NCCCc1cc([C@@H](C)N(C(=O)[C@H]2CNCCO2)C2CC2)nc2c1CCCC2 [Example 122]	0.2
COCCCCc1cc([C@@H](C)N(C(=O)[C@H]2CNCCO2)C2CC2)nc2c1CCCC2 [Example 123]	0.8
COCCCc1cn(C)c2cnc([C@@H](C)N(C(=O)[C@H]3CNCCO3)C3CC3)cc12 [Example 125]	1.3
CCc1ncc([C@@H](C)N(C(=O)[C@H]2CNCCO2)C2CC2)cc1CCCCOC [Example 126]	6
COC(=O)NCCCc1cc([C@@H](C)N(C(=O)[C@H]2CNCCO2)C2CC2)cnc1-c1ccccc1 [Example 128]	1.4
COC(=O)NCCCc1cc([C@@H](C)N(C(=O)[C@H]2CNCCO2)C2CC2)cc(C2CC2)n1 [Example 129]	1.3
CCc1cn(CCCOC)c2cc([C@@H](C)N(C(=O)[C@H]3CNCCO3)C3CC3)nc(Cl)c12 [Example 130]	1.5
COC(=O)NCCCc1cc(C2CC2)nc([C@@H](C)N(C(=O)[C@H]2CNCCO2)C2CC2)c1 [Example 133]	1.6
COCCCCn1cc([C@@H](C)N(C(=O)[C@H]2CNCCO2)C2CC2)c2ccnc(C)c21 [Example 134]	6.3
COC(=O)NCCCn1cc([C@@H](C)N(C(=O)[C@H]2CNCCO2)C2CC2)c2cnc(C)cc21 [Example 135]	6.3
COC(=O)NCCCn1cc([C@@H](C)N(C(=O)[C@H]2CNCCO2)C2CC2)nc1-c1ccccc1 [Example 136]	0.3
COC(=O)NCCCc1cc([C@@H](C)N(C(=O)[C@H]2CNCCO2)C2CC2)cnc1C1CCCC1 [Example 137]	0.4
COC(=O)NCCCn1cc(C(C)N(C(=O)[C@H]2CNCCO2)C2CC2)c2ccnc(C)c21 (some centres unmarked) [Example 138]	6.1
COC(=O)NCCCn1cc(C(C)N(C(=O)[C@H]2CNCCO2)C2CC2)c2ncc(F)cc21 (some centres unmarked) [Example 139]	2.1
CCc1nc([C@@H](C)N(C(=O)[C@H]2CNCCO2)C2CC2)cc2c1c(C)cn2CCCOC [Example 140]	0.8

Compound	IC50 [nM]
COC(=O)NCCCc1cc([C@@H](C)N(C(=O)[C@H]2CNCCO2)C2CC2)nc2ccc(OC)cc12 [Example 141]	0.5
COC(=O)NCCCc1cc([C@@H](C)N(C(=O)[C@H]2CNCCO2)C2CC2)nc2ccc(F)cc12 [Example 142]	0.5
COC(=O)NCCCc1cc([C@@H](C)N(C(=O)[C@H]2CNCCO2)C2CC2)nc2cc(F)c(F)cc12 [Example 143]	1.5
COC(=O)NCCCc1cc([C@@H](C)N(C(=O)[C@H]2CNCCO2)C2CC2)nc2ccc(C)cc12 [Example 144]	0.7
COC(=O)NCCCc1cc([C@@H](C)N(C(=O)[C@H]2CNCCO2)C2CC2)cc2cccnc12 [Example 145]	0.5
COC(=O)NCCCc1cc([C@@H](C)N(C(=O)[C@H]2CNCCO2)C2CC2)nc2ccc(C#N)cc12 [Example 146]	1
CCc1nc([C@@H](C)N(C(=O)[C@H]2CNCCO2)C2CC2)cc2c1ccn2Cc1ccccc1 [Example 147]	2.5
Cc1nc([C@@H](C)N(C(=O)[C@H]2CNCCO2)C2CC2)cc2c1ccn2Cc1ccccc1 [Example 148]	5.1
COC(=O)NCCCc1cc([C@@H](C)N(C(=O)[C@H]2CNCCO2)C2CC2)cc2ncccc12 [Example 149]	0.8
CCc1cn(CCCOC)c2cc([C@@H](C)N(C(=O)[C@H]3CNCCO3)C3CC3)nc(C#N)c12 [Example 150]	2.6
COC(=O)NCCN1CC(C)(C)c2ccc([C@@H](C)N(C(=O)[C@H]3CNCCO3)C3CC3)cc21 [Example 151]	1
CCc1cn(CCCOC)c2cc([C@@H](C)N(C(=O)[C@H]3CNCCO3)C3CC3)nc(CC)c12 [Example 152]	1.1
COCCCn1cc(COC)c2c(C(C)C)nc([C@@H](C)N(C(=O)[C@H]3CNCCO3)C3CC3)cc21 [Example 153]	2.2
COC(=O)NCc1cc([C@@H](C)N(C(=O)[C@H]2CNCCO2)C2CC2)nc2ccccc12 [Example 154]	2.4
CCc1nc([C@@H](C)N(C(=O)[C@H]2CNCCO2)C2CC2)cc2c1c(F)cn2CCCOC [Example 155]	0.8
COc1ccc2nc([C@@H](C)N(C(=O)[C@H]3CNCCO3)C3CC3)cc(CCCNC(C)=O)c2c1 [Example 156]	2.1
COc1ccc2nc([C@@H](C)N(C(=O)[C@H]3CNCCO3)C3CC3)cc(CCCNC=O)c2c1 [Example 157]	3.4
COC(=O)NCCCn1nc([C@@H](C)N(C(=O)[C@H]2CNCCO2)C2CC2)cc1-c1ccc(F)cc1 [Example 158]	0.3
COC(=O)NCCCn1nc([C@@H](C)N(C(=O)[C@H]2CNCCO2)C2CC2)cc1-c1ccccc1 [Example 159]	0.2
COCCCCn1cc([C@@H](C)N(C(=O)[C@H]2CNCCO2)C2CC2)nc1-c1ccccc1 [Example 160]	0.8
CCc1nc([C@@H](C)N(C(=O)[C@H]2CNCCO2)C2CC2)cc2c1c(C#N)cn2CCCOC [Example 161]	0.7
